# Patent US12560591B2, “Methods of treatment with CD8 T cell-mediated immune therapy” (Providence Health & Services—Oregon, priority 2019, dated 2026)
# Tests used:
# [1] = system: CXCR3^+CD8^+ T cells in the tumor microenvironment; experiment: Clinical trial NCT02688712: immunofluorescence of rectal tumor biopsies, baseline vs day 15; assay type: in vivo, human; details: rectal cancer patient biopsies, baseline vs day 15, FIG. 12D-E
# Excerpt: FIGS. 12A-12E are a series of panels showing TGFβ-mediated suppression of CXCR3-dependent CD8^+ T cell chemotaxis is relieved by LY2157299 in human patients with rectal cancer. […] FIG. 12B illustrates the clinical trial schema for a phase II clinical trial of rectal cancer patients and sample collection intervals. Patients receive two cycles of LY2157299 on days 1-14 and again on days 30-43 while receiving standard of care chemoradiation on days 15-57 prior to surgery. […] Patients are grouped by nodal status following neoadjuvant treatment (ypN). On the right, percent change in frequency of CXCR3^+CD3^+CD4^− T cells between days 1 and 15 is shown versus the neoadjuvant rectal (NAR) score. […] Each patient is shown (thin gray lines) along with the mean of all patients (thick black line). […]
# To determine the clinical relevance of our data, the expression of CXCR3 in human patients was interrogated. […] Therefore, the CD4^+ T cell panel was used and back gated on CD45^+CD3^+CD4^− T cells, the majority of which are CD8^+ T cells (on average 65% of CD45^+CD3^+CD4^− cells were CD8^+ T cells using the T effector and memory panel which has CD45, CD3, CD4, and CD8, but not CXCR3), and calculated CXCR3 expression. […] Therefore, forceps-biopsy specimens obtained by proctoscopy at baseline and day 15 were evaluated for alterations in CXCR3^+CD8^+ T cells.
# [2] = system: Smad2 (ALK5 signaling) in tumor tissue; experiment: phospho-SMAD2 / CD8a co-immunofluorescence of tumor sections at day 14; assay type: in vivo, mouse; details: day 14, one day post-LY treatment, specifically in CD8α^+ cells, FIG. 1C
# Experimental: FIGS. 1A-1D are a series of panels showing that the TGFβR1 antagonist LY2157299 enhances chemo-radiation efficacy dependent on CD8α^+ cells in CT26 tumors. FIG. 1A is a treatment schema in the CT26 tumor model. Six to eight week old BALB/c mice were implanted subcutaneously in the left flank with 2×10^5 CT26 tumor cells. Seven days following implant, animals were randomized based on tumor size, and vehicle control or LY2157299 compound were administered by oral gavage twice daily every 12 hours at 150 mg/kg for 7 consecutive days. At day 14, some mice received five consecutive radiation treatments of 5 Gy targeted to tumor tissue along with 25 mg/kg injections of 5-fluorouracil (5FU) chemotherapy administered intraperitoneally on days 14, 16, and 18. LY treatment groups resumed BID oral dosing from days 21-27. Mean tumor growth (i) and survival (ii) were assessed three times per week up to 100 days or death (FIG. 1B). […] Arrows identify pSMAD2^+CD8^+ cells in vehicle mice. […] NS=not significant, *=p<0.05, **=p<0.01, ***=p<0.001.
# Immunofluorescence: Human rectal cancer biopsies were fixed in 10% NBF overnight and mouse tumors were fixed in zinc fixative overnight prior to tissue processing and paraffin embedding followed by sectioning cut at 5 microns for immunofluorescent staining. […]
# Production of TGFβ by cells within the tumor was evaluated.
smiles,measurement,setting,value
Cc1cccc(-c2nn3c(c2-c2ccnc4ccc(C(N)=O)cc24)CCC3)n1 [LY2157299],percentage CXCR3^+CD8^+ T cells in the tumor microenvironment,[1],increase in the percentage CXCR3^+CD8^+ T cells
same,phosphorylation and nuclear translocation of Smad2 in tumor sections,[2],reduced phosphorylation and nuclear translocation
